Earlier results, collected in patent publication US12168054B2 (SYNDAX PHARMACEUTICALS, INC., priority 2017, dated 2024).

Legend:
histone acetylation = conditions: following the administration of entinostat
[1] = in vivo

half-life [1]: about 100 hours
Structure (SMILES): Nc1ccccc1NC(=O)c1ccc(CNC(=O)OCc2cccnc2)cc1 [Entinostat, N-(2-aminophenyl)-4-[N-(pyridine-3-yl)methoxycarbonylamino-methyl]-benzamide]
persistence of changes in histone acetylation following administration (histone acetylation): persist for several weeks
